Reference: BindingDB's records for doi:10.1016/j.chembiol.2008.07.015 (Duke University Medical Center, 2008)

Columns and labels:
Assay in all cases: BP Incorporation Assay
Settings in all cases: 37 °C
[1] = biological target: T1, Protein-glutamine gamma-glutamyltransferase 2 (Homo sapiens, UniProt P21980)
T1 sequence (P21980 whole entry): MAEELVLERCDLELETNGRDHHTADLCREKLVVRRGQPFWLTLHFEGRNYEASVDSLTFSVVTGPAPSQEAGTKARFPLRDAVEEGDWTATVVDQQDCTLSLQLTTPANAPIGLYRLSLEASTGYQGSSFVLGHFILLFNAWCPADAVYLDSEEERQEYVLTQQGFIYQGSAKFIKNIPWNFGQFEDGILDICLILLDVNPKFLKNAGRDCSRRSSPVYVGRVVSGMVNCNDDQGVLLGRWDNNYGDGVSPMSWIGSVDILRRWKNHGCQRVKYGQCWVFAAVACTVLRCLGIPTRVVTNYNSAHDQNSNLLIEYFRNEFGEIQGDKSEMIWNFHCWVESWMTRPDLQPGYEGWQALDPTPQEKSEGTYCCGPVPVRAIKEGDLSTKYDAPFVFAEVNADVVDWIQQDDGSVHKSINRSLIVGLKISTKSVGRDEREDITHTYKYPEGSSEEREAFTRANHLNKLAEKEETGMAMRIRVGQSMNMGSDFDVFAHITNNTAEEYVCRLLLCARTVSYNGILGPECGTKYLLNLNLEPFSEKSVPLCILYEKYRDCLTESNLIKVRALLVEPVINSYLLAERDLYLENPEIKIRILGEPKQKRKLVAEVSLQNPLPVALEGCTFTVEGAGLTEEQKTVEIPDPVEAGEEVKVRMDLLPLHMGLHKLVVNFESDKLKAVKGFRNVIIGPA
Procedure: (§1) In order to eliminated fluorescence interference, chemicals were subjected to a secondary screening using colorimetric BP incorporation assay. TGase/TGMS activity was determined by quantifying the incorporation of BP into N,N'-dimethylcasein in a microtiter plate.

[2] = biological target: Protein kinase C alpha type/glutamine gamma-glutamyltransferase 2 (Homo sapiens, UniProt P17252+P21980)
Procedure: as §1

[3] = biological target: Protein-glutamine gamma-glutamyltransferase 2/Receptor protein-tyrosine kinase (Homo sapiens, UniProt P21980+Q504U8)
Chain of Protein-glutamine gamma-glutamyltransferase 2/Receptor protein-tyrosine kinase (Q504U8 whole entry, one chain of several): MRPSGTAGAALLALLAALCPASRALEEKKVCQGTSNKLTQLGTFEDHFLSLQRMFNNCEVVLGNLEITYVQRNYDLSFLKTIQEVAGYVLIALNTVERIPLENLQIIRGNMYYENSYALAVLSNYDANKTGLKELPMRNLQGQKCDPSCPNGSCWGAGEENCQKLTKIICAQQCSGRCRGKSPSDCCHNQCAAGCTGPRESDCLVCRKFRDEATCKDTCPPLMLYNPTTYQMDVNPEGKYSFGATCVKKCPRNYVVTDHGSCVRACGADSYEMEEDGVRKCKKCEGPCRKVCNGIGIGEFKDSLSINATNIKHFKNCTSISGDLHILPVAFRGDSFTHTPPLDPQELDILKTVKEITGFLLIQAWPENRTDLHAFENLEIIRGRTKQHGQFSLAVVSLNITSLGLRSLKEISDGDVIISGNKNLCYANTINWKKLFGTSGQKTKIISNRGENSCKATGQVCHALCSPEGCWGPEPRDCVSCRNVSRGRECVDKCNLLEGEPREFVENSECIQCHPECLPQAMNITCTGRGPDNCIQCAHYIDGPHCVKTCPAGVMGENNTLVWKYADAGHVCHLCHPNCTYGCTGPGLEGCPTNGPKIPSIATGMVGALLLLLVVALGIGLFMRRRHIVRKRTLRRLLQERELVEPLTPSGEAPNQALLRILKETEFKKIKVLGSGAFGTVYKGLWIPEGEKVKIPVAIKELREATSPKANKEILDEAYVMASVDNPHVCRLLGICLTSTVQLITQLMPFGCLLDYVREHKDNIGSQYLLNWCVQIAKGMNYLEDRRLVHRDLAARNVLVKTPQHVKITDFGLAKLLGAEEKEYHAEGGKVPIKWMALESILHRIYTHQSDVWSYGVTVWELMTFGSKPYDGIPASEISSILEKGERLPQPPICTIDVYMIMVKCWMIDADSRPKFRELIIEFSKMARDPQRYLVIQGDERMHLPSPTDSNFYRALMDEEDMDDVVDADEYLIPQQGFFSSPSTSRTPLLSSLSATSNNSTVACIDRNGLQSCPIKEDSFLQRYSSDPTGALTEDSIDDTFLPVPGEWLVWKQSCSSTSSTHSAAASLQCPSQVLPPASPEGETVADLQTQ
Procedure: as §1

Compound	IC50 [2]	also measured
CC1=CC(=O)c2ccccc2C1=O [Vitamin K3]		IC50 [1]: 2.2 µM
CC(=O)c1c(O)c(C)c(O)c(Cc2c(O)c3c(c(C(=O)C=Cc4ccccc4)c2O)OC(C)(C)C=C3)c1O [(E)-1-(6-(3-acetyl-2,4,6-trihydroxy-5-methylbenzyl)-5,7-dihydroxy-2,2-dimethyl-2H-chromen-8-yl)-3-phenylprop-2-en-1-one]	20 µM	
O=C1Nc2ccc(I)cc2/C1=C/c1cc(Br)c(O)c(Br)c1 [G6416 (GW5074)]	15 µM	
N#C/C(=C\c1ccc(O)c(O)c1)C(N)=S [alpha-Cyano-(3,4-dihydroxy)thiocinnamide]		IC50 [3]: 3 µM
